This data set concerns rodent carcinogenicity bioassays, tumor incidence. In words: CCRIS carcinogenicity studies. A digest of the protocol: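 NCI-built, expert-reviewed records of carcinogenicity and related test outcomes (mutagenicity, tumor promotion/inhibition) compiled from published and report sources, historical span 1985-2011, not updated.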

Activity calls are given as the source filed them. The rule behind the calls is not given here.

In the case of `NC(=O)N(CCF)N=O`, the carcinogen call by setting is: (Species: RAT, Strain/Sex: F344/MALE, Route: GAVAGE, Dose: 0, 1.75 MG/ML (TOTAL DOSE 0; 0.2 MMOL) IN 2 ML ETHYL ACETATE AND CORN OIL (1:2) 2/WK FOR 40 WK (STUDY DURATION: LIFETIME, Dose: 0, 1.75 MG/ML (TOTAL DOSE 0; 0.2 MMOL) IN 2 ML ETHYL ACETATE AND CORN OIL (1:2) 2/WK FOR 40 WK (STUDY DURATION: LIFETIME) “inactive; negative”; (Species: RAT, Strain/Sex: F344/MALE, Route: GAVAGE, Dose: 0, 1.75 MG/ML IN 0.2 ML ETHYL ACETATE AND CORN OIL 2/WK FOR 40 WK (STUDY DURATION: LIFESPAN), Tumor Site: Type of Lesion: FORESTOMACH: TUMOR) “active; positive”.

Take `C[C@]12CC[C@@H]3C4=C(CC[C@H]3[C@@H]1CCC2=O)C(=O)C(=O)C=C4`: the carcinogen call (Species: RAT, Strain/Sex: STRAIN-CD/FEMALE, Route: INJECTION, Dose: 0, 30 UMOL (TOTAL DOSE) 1/6 INJECTED UNDER EACH OF 3 THORACIC AND 3 INGUINAL NIPPLES ONCE (STUDY DURATION: 44 WK)) was “inactive; negative”.

Regarding `CC(=O)OCN(CC(C)C)N=O`, the carcinogen call (Species: RAT, Strain/Sex: F344/FEMALE, Route: SUBCUTANEOUS, Dose: 6.6 MG/KG 1/WK FOR 10 WK, Tumor Site: Type of Lesion: INJECTION SITE: MALIGNANT FIBROUS HISTIOCYTOMA) was “active; positive”.

Regarding `c1ccc2c(c1)ccc1nc3c(ccc4ccccc43)cc12`, the carcinogen call runs as follows: (Species: MOUSE, Route: DERMAL, Tumor Site: Type of Lesion: INTEGUMENTARY SYSTEM (SKIN)) “active; positive”; (Species: MOUSE, Route: SUBCUTANEOUS, Tumor Site: Type of Lesion: INJECTION SITE, LUNG) “active; positive”; (Species: RAT, Strain/Sex: OSBORNE-MENDEL/FEMALE, Route: LUNG IMPLANT, Dose: 0, 0.1, 0.3, 1.0 MG IN BEESWAX/TRICAPRYLIN (STUDY DURATION: LIFETIME), Dose: 0, 0.1, 0.3, 1.0 MG IN BEESWAX/TRICAPRYLIN (STUDY DURATION: LIFETIME), Tumor Site: Type of Lesion: LUNG: EPIDERMOID CARCINOMA) “active; positive”.

Take `C=C/C=C\C1C2/C=C/CC(=O)O[C@@]34C[C@@H](C)[C@]5(O)C6C=C(C)C(=O)[C@@]6(O)CC(CO)=C[C@H]5[C@@H]3[C@@]4(C)COC(=O)C2C2C(/C=C/C=C/C=C/CCC)C12` (stereo partly drawn): where the note is “Species: MOUSE, Strain/Sex: CD-1/FEMALE (15), Route: DERMAL, Dose: 0, 2 UG IN 0.1 ML OF METHANOL 2/WK FOR 16 WK BEGINNING 1 WK POST CARCINOGEN DOSE THEN 5 UG 2/WK FOR 13 WK (STUDY DURATIO”, the carcinogen call was “inactive; negative”.

Take `FC(Cl)C(F)(F)F` (stereo not drawn): the carcinogen call reads like this: (Species: RAT, Strain/Sex: CRL:CD/FEMALE, Route: INHALATION, Dose: 0, 2000, 10,000, 50,000 PPM 6 HR/D 5 D/WK FOR 2 YR (STUDY DURATION: 2 YR), Dose: 0, 2000, 10,000, 50,000 PPM 6 HR/D 5 D/WK FOR 2 YR (STUDY DURATION: 2 YR)) “inactive; negative”; (Species: RAT, Strain/Sex: CRL:CD/MALE, Route: INHALATION, Dose: 0, 2000, 10,000, 50,000 PPM 6 HR/D 5 D/WK FOR 2 YR (STUDY DURATION: 2 YR), Dose: 0, 2000, 10,000, 50,000 PPM 6 HR/D 5 D/WK FOR 2 YR (STUDY DURATION: 2 YR)) “inactive; negative”.

Turning to `OC1c2ccc3cc4ccccc4nc3c2C2OC2C1O` (stereo not drawn), the carcinogen call was “active; positive” (Species: MOUSE, Strain/Sex: SWISS/FEMALE, Route: INTRAPERITONEAL, Dose: 0, 0.5 UMOL GIVEN AS 70 NMOL IN 5 µL DMSO WITHIN 24 HR OF BIRTH, 140 NMOL IN 10 µL DMSO ON D 8 OF LIFE, AND 280 NMOL IN, Tumor Site: Type of Lesion: LUNG: ADENOMA); “active; positive” (Species: MOUSE, Strain/Sex: SWISS/FEMALE, Route: INTRAPERITONEAL, Dose: 0, 1.05 UMOL GIVEN AS 150 NMOL IN 5 µL DMSO WITHIN 24 HR OF BIRTH, 300 NMOL IN 10 µL DMSO ON D 8 OF LIFE, AND 600 NMOL I, Tumor Site: Type of Lesion: LUNG: ADENOMA); “active; positive” (Species: MOUSE, Strain/Sex: SWISS/MALE, Route: INTRAPERITONEAL, Dose: 0, 0.5 UMOL GIVEN AS 70 NMOL IN 5 µL DMSO WITHIN 24 HR OF BIRTH, 140 NMOL IN 10 µL DMSO ON D 8 OF LIFE, AND 280 NMOL IN, Tumor Site: Type of Lesion: LUNG: ADENOMA, LIVER: NEOPLASTIC NODULE); “active; positive” (Species: MOUSE, Strain/Sex: SWISS/MALE, Route: INTRAPERITONEAL, Dose: 0, 1.05 UMOL GIVEN AS 150 NMOL IN 5 µL DMSO WITHIN 24 HR OF BIRTH, 300 NMOL IN 10 µL DMSO ON D 8 OF LIFE, AND 600 NMOL I, Tumor Site: Type of Lesion: LUNG: ADENOMA, LIVER: NEOPLASTIC NODULE).

On to `OCC(Br)CBr` (stereo not drawn), for which the carcinogen call runs as follows: (Species: MOUSE, Strain/Sex: B6C3F1/FEMALE, Route: DERMAL, Dose: 0, 188, 375 MG/KG IN ETHANOL APPLIED TO SUBSCAPULAR SKIN 5 D/WK FOR 39-42 WK (STUDY DURATION: 42 WK), Dose: 0, 188, 375 MG/KG IN ETHANOL APPLIED TO SUBSCAPULAR SKIN 5 D/WK FOR 39-42 WK (STUDY DURATION: 42 WK), Tumor Site: Type of Lesion: SKIN: SQUAMOUS CELL PAPILLOMA, FORESTOMACH: SQUAMOUS CELL PAPILLOMA, SQUAMOUS CELL CARCINOMA) “active; positive”; (Species: MOUSE, Strain/Sex: B6C3F1/MALE, Route: DERMAL, Dose: 0, 188, 375 MG/KG IN ETHANOL APPLIED TO SUBSCAPULAR SKIN 5 D/WK FOR 36-39 WK (STUDY DURATION: 42 WK), Dose: 0, 188, 375 MG/KG IN ETHANOL APPLIED TO SUBSCAPULAR SKIN 5 D/WK FOR 36-39 WK (STUDY DURATION: 42 WK), Tumor Site: Type of Lesion: SKIN: SQUAMOUS CELL PAPILLOMA, FORESTOMACH: SQUAMOUS CELL PAPILLOMA, LUNG: ALVEOLAR/BRONCHIOLAR ADENOMA, LIVER: HEPATOCE, Tumor Site: Type of Lesion: SKIN: SQUAMOUS CELL PAPILLOMA, FORESTOMACH: SQUAMOUS CELL PAPILLOMA, LUNG: ALVEOLAR/BRONCHIOLAR ADENOMA, LIVER: HEPATOCE) “active; positive”; (Species: RAT, Strain/Sex: F344/FEMALE, Route: DERMAL, Dose: 0, 188, 375 MG/KG IN ETHANOL APPLIED TO SUBSCAPULAR SKIN 5 D/WK FOR 52-55 WK (STUDY DURATION: 56 WK), Dose: 0, 188, 375 MG/KG IN ETHANOL APPLIED TO SUBSCAPULAR SKIN 5 D/WK FOR 52-55 WK (STUDY DURATION: 56 WK), Tumor Site: Type of Lesion: SKIN: SQUAMOUS CELL PAPILLOMA OR CARCINOMA, BASAL CELL TUMOR, KERATOACANTHOMA, ORAL MUCOSA: SQUAMOUS CELL PAPILLOMA, SQU) “active; positive”; (Species: RAT, Strain/Sex: F344/MALE, Route: DERMAL, Dose: 0, 188, 375 MG/KG IN ETHANOL APPLIED TO SUBSCAPULAR SKIN 5 D/WK FOR 48-51 WK (STUDY DURATION: 56 WK), Dose: 0, 188, 375 MG/KG IN ETHANOL APPLIED TO SUBSCAPULAR SKIN 5 D/WK FOR 48-51 WK (STUDY DURATION: 56 WK), Tumor Site: Type of Lesion: SKIN: SQUAMOUS CELL PAPILLOMA OR CARCINOMA, BASAL CELL TUMOR, SEBACEOUS ADENOMA, KERATOACANTHOMA, ORAL MUCOSA: SQUAMOUS) “active; positive”.

As to `C=CC1CC=CCC1` (stereo not drawn), for the setting “Species: MOUSE, Strain/Sex: B6C3F1/FEMALE, Route: GAVAGE, Dose: 0, 200, 400 MG/KG IN CORN OIL 5 D/WK FOR 103 WK, Dose: 0, 200, 400 MG/KG IN CORN OIL 5 D/WK FOR 103 WK, Tumor Site: Type of Lesion: OVARIES: BENIGN MIXED TUMOR, GRANULOSA CELL TUMOR, GRANULOSA CELL TUMOR OR CARCINOMA”, the carcinogen call was “active; positive”.

On to `Nc1c(Cl)c(F)nc(OCC(=O)O)c1Cl`, for which the carcinogen call reads like this: (Species: Mouse, Strain/Sex: CD-1/Female (60/Group), Route: Oral, Dose: 0, 100, 500, 1000 mg/kg/day of 98.9% fluroxypyr in diet for 18 mo, study duration 18 mo, Dose: 0, 100, 500, 1000 mg/kg/day of 98.9% fluroxypyr in diet for 18 mo, study duration 18 mo) “inactive; negative”; (Species: Mouse, Strain/Sex: CD-1/Male (60/Group), Route: Oral, Dose: 0, 100, 500, 1000 mg/kg/day of 98.9% fluroxypyr in diet for 18 mo, study duration 18 mo, Dose: 0, 100, 500, 1000 mg/kg/day of 98.9% fluroxypyr in diet for 18 mo, study duration 18 mo) “inactive; negative”; (Species: Rat, Strain/Sex: Fischer 344/Female (50/Group), Route: Oral, Dose: 0, 100, 500, 1000 mg/kg/day of 99.0% fluroxypyr in diet for 2 yr, study duration 2 yr, Dose: 0, 100, 500, 1000 mg/kg/day of 99.0% fluroxypyr in diet for 2 yr, study duration 2 yr) “inactive; negative”; (Species: Rat, Strain/Sex: Fischer 344/Male (50/Group), Route: Oral, Dose: 0, 100, 500, 1000 mg/kg/day of 99.0% fluroxypyr in diet for 2 yr, study duration 2 yr, Dose: 0, 100, 500, 1000 mg/kg/day of 99.0% fluroxypyr in diet for 2 yr, study duration 2 yr) “inactive; negative”.

These data come from PubChem BioAssay AID1259411 (Chemical Carcinogenesis Research Information System (CCRIS), 2018).
